# Where “and” joins values, the source holds several entries; their conditions need not be identical. Equal entries are not always repeated.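 Five compound concentrations were applied to cells in 96-well plates for 48 hours; endpoints were derived by simple linear interpolation of the resulting dose-response curve. The concentration for 50% growth inhibition is given as GI50. The concentration for full growth arrest is given as TGI.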
# Columns and labels:
# Test in all cases: NCI tumour cell line growth inhibition, 48 h
# [1] = system: NCI-H522 lung
# [2] = system: NCI/ADR-RES ovarian
# [3] = system: TK-10 renal
# [4] = system: HOP-62 NSCLC
# [5] = system: RXF 393 renal
# [6] = system: UO-31 renal
# [7] = system: HL-60(TB) leukemia
# [8] = system: NCI-H226 lung
# [9] = system: IGROV1 ovarian
# [10] = system: OVCAR-3 ovarian
SMILES,GI50 [1],TGI [1],GI50 [2],TGI [2],GI50 [3],TGI [3] [nM],GI50 [4],TGI [4],GI50 [5],TGI [5],GI50 [6],TGI [6],GI50 [7],TGI [7],GI50 [8],TGI [8],GI50 [9],TGI [9],GI50 [10],TGI [10]
N#C/C(=C\c1ccc(Br)cc1)n1nnc2ccc(F)cc21,227 nM,858 nM,340 nM,3420 nM,2260 nM,5610,2330 nM,7520 nM,465 nM,1860 nM,1020 nM,2200 nM,702 nM,5230 nM,1670 nM,4030 nM,569 nM,2250 nM,373 nM,1490 nM
COc1cc(Nc2ncc(F)c(Nc3ccc4c(n3)N(COP(=O)(O)O)C(=O)C(C)(C)O4)n2)cc(OC)c1OC,1530 nM and 1240 nM,7020 nM and 7100 nM,2990 nM and 3010 nM,17200 nM and > 10000 nM,774 nM and 768 nM,3060,2250 nM and 753 nM,10200 nM and 7370 nM,100 nM and 256 nM,621 nM and 936 nM,685 nM and 348 nM,5720 nM and 1650 nM,4190 nM and 6050 nM,32600 nM and > 10000 nM,876 nM and 380 nM,4780 nM and 2320 nM,457 nM and 342 nM,2220 nM and 2110 nM,2660 nM and 2710 nM,33600 nM and > 10000 nM
CCCCCCCc1cc2c3c(nc4ccccc42)C(=O)c2cccnc2-c3n1,1140 nM,3070 nM,4330 nM,12600 nM,2400 nM,4410,7140 nM,20000 nM,5670 nM,11100 nM,3850 nM,11000 nM,1420 nM,,6820 nM,16300 nM,3280 nM,15100 nM,2300 nM,8970 nM
Cn1cc(-c2ccc(-c3ccc(C4=NC5(CC5)C(=O)N4C[C@@H]4CCN(C(=O)C5CC5)C4)cc3)cc2)cn1,12300 nM,40600 nM,10400 nM,> 100000 nM,24000 nM,81200,25200 nM,> 100000 nM,15900 nM,33300 nM,1470 nM,> 100000 nM,61.5 nM,25900 nM,16000 nM,51200 nM,28700 nM,> 100000 nM,11500 nM,28100 nM
Cc1cnc(C(=O)NNc2nc3sc4c(c3c(=O)n2C)C(C)CCC4)cn1 (centres undefined),328 nM,4620 nM,392 nM,10800 nM,608 nM,11900,304 nM,5650 nM,926 nM,3600 nM,322 nM,1860 nM,269 nM,765 nM,404 nM,3030 nM,292 nM,2800 nM,259 nM,1800 nM
Cc1ncc(C(=O)Nc2ccc(CN3CCN(C)CC3)c(C(F)(F)F)c2)cc1C#Cc1cnc(N)cc1C#N,405 nM,3240 nM,2120 nM,5240 nM,1700 nM,3830,573 nM,2910 nM,227 nM,1470 nM,307 nM,1330 nM,481 nM,2850 nM,263 nM,2660 nM,103 nM,2060 nM,995 nM,3250 nM

# Source: PubChem BioAssay (NCI)
